From patent US12590950B2, “Methods for predicting ER-mediated DNA damage” (UNIVERSITY OF MASSACHUSETTS, priority 2019, dated 2026)
Like-named read-outs stand apart in the source and are kept apart here.

Key:
[1] = also printed as 200 μg/L; cited from earlier work
ER [2] = target: T1, ER (Homo sapiens, UniProt P03372); design: host or cells: MCF-7; conditions: MCF-7, 1 μM; cited from earlier work
T1 sequence (P03372 1-595): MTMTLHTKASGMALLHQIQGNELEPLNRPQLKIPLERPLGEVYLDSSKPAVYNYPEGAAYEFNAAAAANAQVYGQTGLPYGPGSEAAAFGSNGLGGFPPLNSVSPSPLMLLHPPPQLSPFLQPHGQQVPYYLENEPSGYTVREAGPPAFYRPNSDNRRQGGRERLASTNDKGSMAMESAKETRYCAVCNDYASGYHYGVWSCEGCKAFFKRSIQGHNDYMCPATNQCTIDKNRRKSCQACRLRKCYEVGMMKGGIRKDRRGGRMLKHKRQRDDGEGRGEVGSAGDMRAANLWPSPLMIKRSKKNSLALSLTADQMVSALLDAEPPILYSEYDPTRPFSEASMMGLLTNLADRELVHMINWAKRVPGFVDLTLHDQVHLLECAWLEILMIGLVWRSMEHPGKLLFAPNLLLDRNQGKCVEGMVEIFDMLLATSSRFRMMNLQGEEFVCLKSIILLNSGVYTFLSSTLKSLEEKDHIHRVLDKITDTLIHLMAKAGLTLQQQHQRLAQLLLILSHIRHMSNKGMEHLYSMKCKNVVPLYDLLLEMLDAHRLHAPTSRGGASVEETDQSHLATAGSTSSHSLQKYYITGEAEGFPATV

AREG and PGR = assay: RT-qPCR of endogenous ER target genes AREG and PGR in T47D and MCF-7 cell lines; type: cell-based, human; conditions: for induction of endogenous ER target genes AREG and PGR: 1 μM, T47D and MCF-7; for transcription by endogenous gene expression: 5 μM BP3, 1 μM PP
[3] = tested on: normal human keratin cell lines; conditions: cited from earlier work
[4] = development and reproductive toxicity assays; cited from earlier work
estrogen receptor = target: T2, estrogen receptor (Homo sapiens, UniProt P03372); assay: Luciferase reporter assay (ERE-luciferase transactivation) in T47D-KBluc cells; type: cell-based; conditions: for LOEC (lowest-observed-effect-concentration) for transcription in luciferase assay: T47D-KBluc, 24 h treatment
T2 sequence (P03372 1-595): T1 sequence (P03372 1-595)

[5] = Acute oral exposure of ovariectomized mice: uterine weight; type: in vivo, mouse; conditions: 4 days, BP3 3000, PP 10000 μg/kg/d
Excerpt: Animal Treatment: Forty mature female mice (8 weeks old) BALB/c mice were purchased from Jackson Laboratory and housed in temperature-controlled facilities with a 12-hour alternating day/night light cycle and fed LabChow 5058 ad libitum. All procedures were in accordance with the national guidelines for the care and use of animals and approved by the University of Massachusetts Amherst's Institutional Animal Care and Use Committee.
The mice were ovariectomized before treatment. Briefly, each mouse was anaesthetized with a mix of isofluorance and oxygen. The flanks were shaved, sterilized with betadine and cleaned with alcohol. An incision was made to the skin on the right flank. The underlying muscle layer was nicked to reveal a small hole through which ovary was pulled out by grasping the periovarian fat. A Serrifin clamp was used to hold the ovary. After making sure the blood vessels were constricted to prevent […], the ovary was cut from the uterine horn. The periovarian fat was restored into the peritoneum. The peritoneum was closed with one or two stiches and the skin was closed with 9 mm wound clips. The procedure was repeated on the contralateral side. The mouse was monitored for a week post-procedure and wound clips were removed after 10 days. […]

T47D cells = assay: S9.6 immunostaining (R-loops) in T47D cells; type: cell-based, human; conditions: 5 μM, vs vehicle-treated control
Description: Immunostaining: Cells were grown in clearing media for 48 h and plated on 20 mm coverslip in 12 well plates with a density of 2×10^5 cells/well. After 24 h of growth, cells were treated with 10 nM E2, 1 or 5 μM BP3, and 1 or 5 μM PP with or without 1 μM fulvestrant. γH2AX/ERα: Cells were fixed in ice-cold methanol (100%) for 10 mins and quenched with 0.1 M Glycine for 15 mins. Cells were washed with 1×PBS, blocked in 2% BSA/PBS with 0.1% Triton-X 100 for 1 hr at room temperature (RT), incubated overnight with γH2AX antibody (Cell Signaling #9718 S) or ERα antibody (Santa Cruz Biotechnology #sc-8002) at 4° C. and 1 hour with secondary antibody. S9.6: Cells were fixed in ice-cold 100% methanol for 10 min at −20° C., permeabilized in 100% acetone for 1 min at RT, blocked for 30 min in saline sodium citrate pH 7 (SSC, 4×), 3% BSA, 0.1% Triton-X and incubated with S9.6 (Kerafast #ENH001) 2 hr at RT followed by 1 h with secondary antibody. If indicated, slides were treated with RNase H (NEB #M0297L) for 4 hr at 37° C. prior to incubation with primary antibody. Stained cells were mounted with Vectashield mounting medium containing DAPI (Vector Laboratories #H-1200). […] Analysis of γH2AX and S9.6 intensity per nucleus or foci per nucleus was calculated using Nikon analysis software, where DAPI was used as a mask for the nucleus.

76N-Tert-ESR1 cell line [6] = assay: S9.6 immunostaining (R-loops) in 76N-Tert-ESR1 cells induced with doxycycline; conditions: 76N-Tert-ESR1 after induction of ERα with doxycycline, 5 μM
76N-Tert-ESR1 cell line [7] = conditions: human, 5 µM
ER [8] = target: T1, ER; conditions: 10 μM; cited from earlier work

COc1ccc(C(=O)c2ccccc2)c(O)c1 [BP3, 2-Hydroxy-4-methoxybenzophenone]
serum level following exposure in women [1]: approximately 0.87 μM
ER agonism in transactivation and proliferation assays (ER [2]): weak agonist
concentration at which transcriptional response is observed (AREG and PGR): greater than 5 μM
induction of endogenous ER target genes AREG and PGR (AREG and PGR): poor agonists
transcription by endogenous gene expression (AREG and PGR): no significant increase in transcription
concentration inducing γH2AX foci [3]: 10 µM
no-adverse-effect-level (NOAEL) dose [4]: 3000 µg/kg/day
LOEC (lowest-observed-effect-concentration) for transcription in luciferase assay (estrogen receptor): 5 µM
Relative Transactivation Activity at 90%ile or 95%ile (% RTA vs E2) (estrogen receptor; at 95%ile urine concentration of non-pregnant women): 18.91 ± 6.62%
Relative Transactivation Activity at 90%ile or 95%ile (% RTA vs E2) (estrogen receptor; at 95%ile urine concentration of pregnant women): 27.16±6.2%
maximum relative transactivation activity (RTA) compared to 10 nM E2 (estrogen receptor; maximum): 37%
uterine weights compared to the control treatment [5]: not sufficient
nuclear S9.6 foci (R-loops) (T47D cells): significantly higher
nuclear S9.6 foci (76N-Tert-ESR1 cell line [6]): increased number of nuclear S9.6 foci significantly over vehicle-treated control

CCCOC(=O)c1ccc(O)cc1 [PP, propyl parahydroxybenzoate]
nuclear S9.6 foci (76N-Tert-ESR1 cell line [7]): increased number of nuclear S9.6 foci significantly over vehicle-treated control
concentration at which transcriptional response is observed (AREG and PGR): greater than 5 μM
induction of endogenous ER target genes AREG and PGR (AREG and PGR): poor agonists
transcription by endogenous gene expression (AREG and PGR): no significant increase in transcription
no-adverse-effect-level (NOAEL) dose [4]: 10000 µg/kg/day
induction of gene expression (ERE-CAT reporter) (ER [8]): 1.3 fold
LOEC (lowest-observed-effect-concentration) for transcription in luciferase assay (estrogen receptor): 0.5 µM
uterine weights compared to the control treatment [5]: not sufficient
nuclear S9.6 foci (R-loops) (T47D cells): significantly higher
